In ChEMBL document CHEMBL1154296, “Potent inhibitors of beta-tryptase and human leukocyte elastase based on the MCoTI-II scaffold” (J Med Chem, 2009) one finds Ki data, which are given here for four molecules.

What is called Ki is a dissociation constant, usually derived from enzyme kinetics or from competition with a known ligand.

Starred links: 1 amine or outer side, 2 acyl side, 3 side chain; linkers in the order of their positions; H or OH if unused. Positions of bridges follow the written chain, without caps; N, C: chain ends. Non-standard residues stand in square brackets, D forms with d. Residues, ends and D or L forms follow the SMILES beside them. X2 = N=C(N)NCCC[C@@H](C(=O)[C@H](CCC(N)=O)N[*:1])C(=O)[*:2] Where only a bound is given, the exact number is not on record here.

The nature of assay [1]: Inhibition of tryptase by substrate hydrolysis based fluorescence assay.
Assay [2] can be described thus: Inhibition of trypsin by substrate hydrolysis based fluorescence assay.
The next assay addresses T1, Neutrophil elastase (Homo sapiens, UniProt P08246).
T1 sequence (P08246 whole entry): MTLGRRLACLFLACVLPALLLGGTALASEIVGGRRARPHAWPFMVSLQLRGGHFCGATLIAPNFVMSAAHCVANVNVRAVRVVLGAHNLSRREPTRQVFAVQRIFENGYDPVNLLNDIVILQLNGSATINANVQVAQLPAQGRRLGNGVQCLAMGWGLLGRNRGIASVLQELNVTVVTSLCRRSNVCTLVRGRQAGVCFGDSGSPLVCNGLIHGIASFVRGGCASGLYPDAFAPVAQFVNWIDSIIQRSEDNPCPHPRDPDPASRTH
The assay is described as follows: Inhibition of human leukocyte elastase by substrate hydrolysis based fluorescence assay.

On to `CC[C@H](C)[C@@H]1NC(=O)[C@@H]2CSSC[C@@H]3NC(=O)[C@H](C(C)C)NC(=O)CNC(=O)CNC(=O)[C@H](CC(=O)O)NC(=O)[C@H](CO)NC(=O)CNC(=O)[C@H](CO)NC(=O)CNC(=O)[C@@H]4CSSC[C@H](NC(=O)[C@H](CC(=O)O)NC(=O)[C@H](CO)NC(=O)[C@H](CC(=O)O)NC(=O)[C@H](CCCNC(=N)N)NC(=O)[C@H](CCCNC(=N)N)NC(=O)[C@H](CSSC[C@H](NC1=O)C(=O)N[C@@H](CCCNC(=N)N)C(=O)NCC(=O)N[C@@H](CC(N)=O)C(=O)NCC(=O)N[C@@H](Cc1ccc(O)cc1)C(=O)N4)NC(=O)[C@@H](CCCNC(=N)N)C(=O)[C@H](CCC(N)=O)NC(=O)[C@H](CC(C)C)NC(=O)[C@H]([C@@H](C)CC)NC(=O)[C@H](CCCCN)NC(=O)[C@@H]1CCCN1C3=O)C(=O)N1CCC[C@H]1C(=O)NCC(=O)N[C@@H](C)C(=O)N2` (cyclo(ACICRGNGYCGSGSDGGVCPKIL[X2]CRRDSDCPG); disulfide 2-19, 4-25, 10-31), for which the Ki in assay [1] was 1600 nM; in assay [2], 0.029 nM; on Neutrophil elastase it was “Not Active”.

With `CC[C@H](C)[C@@H]1NC(=O)[C@@H]2CSSC[C@@H]3NC(=O)[C@H](C(C)C)NC(=O)CNC(=O)CNC(=O)[C@H](CC(=O)O)NC(=O)[C@H](CO)NC(=O)CNC(=O)[C@H](CO)NC(=O)CNC(=O)[C@@H]4CSSC[C@H](NC(=O)[C@H](CC(=O)O)NC(=O)[C@H](CO)NC(=O)[C@H](CC(=O)O)NC(=O)[C@H](CCCNC(=N)N)NC(=O)[C@H](CCCNC(=N)N)NC(=O)[C@H](CSSC[C@H](NC1=O)C(=O)N[C@@H](CCCNC(=N)N)C(=O)NCC(=O)N[C@@H](CC(N)=O)C(=O)NCC(=O)N[C@@H](Cc1ccc(O)cc1)C(=O)N4)NC(=O)[C@@H](CCCNC(=N)N)C(=O)[C@H](CCC(N)=O)NC(=O)[C@H](CC(C)C)NC(=O)[C@H]([C@@H](C)CC)NC(=O)[C@H](CCC(N)=O)NC(=O)[C@@H]1CCCN1C3=O)C(=O)N1CCC[C@H]1C(=O)NCC(=O)N[C@@H](C)C(=O)N2` (cyclo(ACICRGNGYCGSGSDGGVCPQIL[X2]CRRDSDCPG); disulfide 2-19, 4-25, 10-31), the Ki in assay [1] was over 50000 nM; in assay [2], over 0.106 nM; on Neutrophil elastase it was “Not Active”.

For the molecule `CC[C@H](C)[C@@H]1NC(=O)[C@@H]2CSSC[C@@H]3NC(=O)[C@H](C(C)C)NC(=O)CNC(=O)CNC(=O)[C@H](CC(=O)O)NC(=O)[C@H](CO)NC(=O)CNC(=O)[C@H](CO)NC(=O)CNC(=O)[C@@H]4CSSC[C@H](NC(=O)[C@H](CC(=O)O)NC(=O)[C@H](CO)NC(=O)[C@H](CC(=O)O)NC(=O)[C@H](CCCNC(=N)N)NC(=O)[C@H](CCCNC(=N)N)NC(=O)[C@H](CSSC[C@H](NC1=O)C(=O)N[C@@H](CCCNC(=N)N)C(=O)NCC(=O)N[C@@H](CC(N)=O)C(=O)NCC(=O)N[C@@H](Cc1ccc(O)cc1)C(=O)N4)NC(=O)[C@@H](CCCNC(=N)N)C(=O)[C@H](CCC(N)=O)NC(=O)[C@H](CC(C)C)NC(=O)[C@H]([C@@H](C)CC)NC(=O)[C@H](CCCNC(=N)N)NC(=O)[C@@H]1CCCN1C3=O)C(=O)N1CCC[C@H]1C(=O)NCC(=O)N[C@@H](C)C(=O)N2` (cyclo(ACICRGNGYCGSGSDGGVCPRIL[X2]CRRDSDCPG); disulfide 2-19, 4-25, 10-31), the Ki is 100 nM in assay [1], 0.085 nM in assay [2] and “Not Active” at Neutrophil elastase.

Turning to `CC[C@H](C)[C@@H]1NC(=O)[C@@H]2CSSC[C@@H]3NC(=O)[C@H](C(C)C)NC(=O)CNC(=O)CNC(=O)[C@H](CC(=O)O)NC(=O)[C@H](CO)NC(=O)CNC(=O)[C@H](CO)NC(=O)CNC(=O)[C@@H]4CSSC[C@H](NC(=O)[C@H](CC(=O)O)NC(=O)[C@H](CO)NC(=O)[C@H](CC(=O)O)NC(=O)[C@H](CCCNC(=N)N)NC(=O)[C@H](CCCNC(=N)N)NC(=O)[C@H](CSSC[C@H](NC1=O)C(=O)N[C@@H](CCCNC(=N)N)C(=O)NCC(=O)N[C@@H](CC(N)=O)C(=O)NCC(=O)N[C@@H](Cc1ccc(O)cc1)C(=O)N4)NC(=O)[C@@H](CCCNC(=N)N)C(=O)[C@H](CCC(N)=O)NC(=O)[C@H](CC(C)C)NC(=O)[C@H]([C@@H](C)CC)NC(=O)[C@H](C(C)C)NC(=O)[C@@H]1CCCN1C3=O)C(=O)N1CCC[C@H]1C(=O)NCC(=O)N[C@@H](C)C(=O)N2` (cyclo(ACICRGNGYCGSGSDGGVCPVIL[X2]CRRDSDCPG); disulfide 2-19, 4-25, 10-31), the inhibition constant (Ki) in assay [1] is over 50000 nM; in assay [2] it was over 0.109 nM; at Neutrophil elastase (read-out: Ki) it was 21 nM.
